Key:
CHP134 = CHP134 CellTiter-Glo (CTG) Assay; assay type: cell-based; conditions: Homo sapiens, CHP-134, 120 h; viable cells by CellTiter-Glo after 5 days
Procedure: […] cells (DSMZ-German Collection of Microorganisms and Cell Cultures, Braunschweig Germany) were cultured in RPMI 1640 supplemented with 10% fetal bovine serum, penicillin (100 U/ml), 1% L-Glutamine and streptomycin ([…]). Cells were seeded (200 cells/well) in 384-well plates for 16 hours. On day two, nine serial 1:3 compound dilutions were made in DMSO in a 96-well plate. The compounds were then further diluted into growth media using a BRAVO robot (Agilent, Santa Clara, CA). The diluted compounds were then added to quadruplicate wells in the 384-well cell plate and incubated at 37° C. and 5% CO2. After 5 days, relative numbers of viable cells were measured by luminescence using CellTiter-Glo® (Promega) according to the manufacturer's instructions and read on a SPARK Multimode Microplate Reader (Tecan, Mannedorf Switzerland). The IC50 calculations for the values reported in Table 2 were carried out using Prism 6.0 software (GraphPad, San Diego).

[1] = target: T1, human recombinant Aurora A (Homo sapiens, UniProt O14965); assay: Aurora A Kinase Biochemical Assay (ADP-Glo); conditions: selectivity ratio; Aurora A 2.5 nM, 20 μM ATP
T1 construct: purchased ThermoFisher PR5935A
T1 sequence (O14965 1-403): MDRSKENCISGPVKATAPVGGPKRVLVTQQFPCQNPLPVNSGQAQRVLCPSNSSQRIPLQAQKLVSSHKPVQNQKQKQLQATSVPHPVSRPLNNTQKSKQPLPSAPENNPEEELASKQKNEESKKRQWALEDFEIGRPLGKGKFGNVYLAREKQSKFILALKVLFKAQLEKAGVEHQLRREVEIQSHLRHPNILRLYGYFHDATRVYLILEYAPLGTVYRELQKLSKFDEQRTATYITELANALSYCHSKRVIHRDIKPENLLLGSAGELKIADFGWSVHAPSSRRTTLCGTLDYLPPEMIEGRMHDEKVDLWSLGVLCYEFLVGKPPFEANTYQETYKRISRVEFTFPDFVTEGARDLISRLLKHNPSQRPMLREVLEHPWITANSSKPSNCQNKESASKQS
Procedure: Activity of human recombinant Aurora A (ThermoFisher, cat #PR5935A) was measured by quantification of adenosine diphosphate (ADP) using the ADP-Glo Kinase Assay Kit (Promega, cat #V9102). Test compounds were solubilized in dimethyl sulfoxide (DMSO) and dispensed into 384-well white polystyrene nonbinding plates (Greiner, cat #781094) using the Echo acoustic dispenser (Labcyte Inc.) in a 11-point 3-fold titration in duplicates. 5 μL of 5.0 nM Aurora A in assay buffer (50 mM HEPES, pH 7.5, 0.01% Brij-35, 0.01% BSA, 10 mM MgCl2, 1 mM EGTA, 1 mM DTT) was added to the plates. Test compounds and Aurora A were incubated for 15 minutes at room temperature (RT). Then 5 μL of a 40 μM adenosine triphosphate (ATP) (Promega, cat #V915B) and 9.3 μM Myelin Basic Protein (MBP) (SignalChem, cat #M42-51N) substrate solution in assay buffer was added and the reaction mixture was incubated for 2 hours at RT. The final concentration of Aurora A, ATP and MBP in the reactions were 2.5 nM, 20 μM and 4.7 μM, respectively. Reactions were stopped and the remaining ATP depleted by adding 10 μL of ADP-Glo reagent (Promega, cat #V912B) and incubating for 40 minutes at RT. The simultaneous conversion of the remaining ADP to ATP and measurement of the newly synthesized ATP was achieved by addition of 20 μL Kinase Detection reagent (Promega, cat #V914B), incubation for 30 min at RT, and luminescence detection using the EnVision plate reader (PerkinElmer). Reactions lacking Aurora A were used as 100% inhibition controls. Reactions containing DMSO alone were used as 0% inhibition controls. The IC50 values reported in Table 2 were determined using four parameter non-linear regression curve fit.

[2] = target: T2, human recombinant Aurora B (Homo sapiens, UniProt Q96GD4); assay: Aurora B Kinase Biochemical Assay (ADP-Glo); conditions: selectivity ratio; Aurora B 10 nM, 114 μM ATP
T2 construct: purchased ThermoFisher PR9210B
Procedure: Activity of human recombinant Aurora B (ThermoFisher, cat #PR9210B) was measured by quantification of adenosine diphosphate (ADP) using the ADP-Glo Kinase Assay Kit (Promega, cat #V9102). Test compounds were solubilized in dimethyl sulfoxide (DMSO) and dispensed into 384-well white polystyrene nonbinding plates (Greiner, cat #781094) using the Echo acoustic dispenser (Labcyte Inc.) in a 11-point 3-fold titration in duplicates. 5 μL of 20 nM Aurora B in assay buffer (50 mM HEPES, pH 7.5, 0.01% Brij-35, 0.01% BSA, 10 mM MgCl2, 1 mM EGTA, 1 mM DTT) was added to the plates. Test compounds and Aurora B were incubated for 15 minutes at room temperature (RT). Then 5 μL of a 228 μM adenosine triphosphate (ATP) (Promega, cat #V915B) and 9.3 μM Myelin Basic Protein (MBP) (SignalChem, cat #M42-51N) substrate solution in assay buffer was added and the reaction mixture was incubated for 2 hours at RT. The final concentration of Aurora b, ATP and MBP in the reactions were 10 nM, 114 μM and 4.7 μM, respectively. Reactions were stopped and the remaining ATP depleted by adding 10 μL of ADP-Glo reagent (Promega, cat #V912B) and incubating for 40 minutes at RT. The simultaneous conversion of the remaining ADP to ATP and measurement of the newly synthesized ATP was achieved by addition of 20 μL Kinase Detection reagent (Promega, cat #V9141B), incubation for 30 min at RT, and luminescence detection using the EnVision plate reader (PerkinElmer). Reactions lacking Aurora B were used as […]. Reactions containing DMSO alone were used as […]. The IC50 values reported in Table 2 were determined using four parameter non-linear regression curve fit.

T2 sequence (Q96GD4 whole entry): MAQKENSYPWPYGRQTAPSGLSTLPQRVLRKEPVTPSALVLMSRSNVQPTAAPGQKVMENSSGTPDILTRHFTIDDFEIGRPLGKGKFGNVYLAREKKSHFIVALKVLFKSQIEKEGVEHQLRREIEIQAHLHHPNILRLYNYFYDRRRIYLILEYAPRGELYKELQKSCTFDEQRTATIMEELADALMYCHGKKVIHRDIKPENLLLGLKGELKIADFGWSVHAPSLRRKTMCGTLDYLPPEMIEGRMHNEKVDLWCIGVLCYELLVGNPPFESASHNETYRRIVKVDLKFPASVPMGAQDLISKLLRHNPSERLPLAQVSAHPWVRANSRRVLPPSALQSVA

SMILES | [Aurora A IC50 (nM)]/[PLK4 IC50 (nM)] [1] | [Aurora B IC50 (nM)]/[PLK4 IC50 (nM)] [2] | IC50 (CHP134)
COc1ccc2c(c1)[C@]1(C[C@H]1c1ccc3c(Nc4cc(-c5cocn5)ccc4OC)n[nH]c3c1)C(=O)N2 [Example 16, (1R,2S)-5′-methoxy-2-{3-[2-methoxy-5-(1,3-oxazol-4-yl)anilino]-1H-indazol-6-yl}spiro[cyclopropane-1,3′-indol]-2′(1′H)-one] | 259.1 | 730.6487 | 160 nM
COc1ccc2c(c1)[C@]1(C[C@H]1c1ccc3c(Nc4ccc(-c5nnn(C)n5)cc4OC)n[nH]c3c1)C(=O)N2 [Example 17, (1R,2S)-5′-methoxy-2-{3-[2-methoxy-4-(2-methyl-2H-tetrazol-5-yl)anilino]-1H-indazol-6-yl}spiro[cyclopropane-1,3′-indol]-2′(1′H)-one] | 1000 | 190 | 370 nM
COc1ccc2c(c1)[C@]1(C[C@H]1c1ccc3c(Nc4cc(-c5cnco5)ccc4OC)n[nH]c3c1)C(=O)N2 [Example 18, (1R,2S)-5′-methoxy-2-{3-[2-methoxy-5-(1,3-oxazol-5-yl)anilino]-1H-indazol-6-yl}spiro[cyclopropane-1,3′-indol]-2′(1′H)-one] | 500 | 520 | 170 nM
COc1ccc2c(c1)[C@]1(C[C@H]1c1ccc3c(Nc4nc(-c5ncco5)cnc4OC)n[nH]c3c1)C(=O)N2 [Example 19, (1R,2S)-5′-methoxy-2-(3-{[3-methoxy-6-(1,3-oxazol-2-yl)pyrazin-2-yl]amino}-1H-indazol-6-yl)spiro[cyclopropane-1,3′-indol]-2′(1′H)-one] | 360 | 460 | 170 nM
COc1ccc2c(c1)[C@]1(C[C@H]1c1ccc3c(Nc4nc(N(C)C)ncc4OC)n[nH]c3c1)C(=O)N2 [Example 20, (1R,2S)-2-(3-{[2-(dimethylamino)-5-methoxypyrimidin-4-yl]amino}-1H-indazol-6-yl)-5′-methoxyspiro[cyclopropane-1,3′-indol]-2′(1′H)-one] | 170 | 120 | 440 nM
COc1ccc2c(c1)[C@]1(C[C@H]1c1ccc3c(Nc4cc(-c5nnn(C)n5)ccc4OC)n[nH]c3c1)C(=O)N2 [Example 21, (1R,2S)-5′-methoxy-2-{3-[2-methoxy-5-(2-methyl-2H-tetrazol-5-yl)anilino]-1H-indazol-6-yl}spiro[cyclopropane-1,3′-indol]-2′(1′H)-one] | 1900 | 990 | 400 nM
CCOc1cc(S(C)(=O)=O)ccc1Nc1n[nH]c2cc([C@@H]3C[C@@]34C(=O)N(C)c3ccc(OC)cc34)ccc12 [Example 23, (1R,2S)-2-{3-[2-ethoxy-4-(methanesulfonyl)anilino]-1H-indazol-6-yl}-5′-methoxy-1′-methylspiro[cyclopropane-1,3′-indol]-2′(1′H)-one] | 2258.3629 | 1017 | 111 nM

Further lines, with some results ahead:

[Aurora A IC50 (nM)]/[PLK4 IC50 (nM)] [1] | [Aurora B IC50 (nM)]/[PLK4 IC50 (nM)] [2] | SMILES | IC50 (CHP134)
842.4019 | 263.2352 | COc1ccc2c(c1)[C@]1(C[C@H]1c1ccc3c(Nc4nc(-c5cnn(C)c5)cnc4OC)n[nH]c3c1)C(=O)N2 [Example 24, (1R,2S)-5′-methoxy-2-(3-{[3-methoxy-6-(1-methyl-1H-pyrazol-4-yl)pyrazin-2-yl]amino}-1H-indazol-6-yl)spiro[cyclopropane-1,3′-indol]-2′(1′H)-one] | 49.9 nM
992.1456 | 921.6946 | COc1ccc2c(c1)[C@]1(C[C@H]1c1ccc3c(Nc4cc(-c5cnn(C)c5)cnc4OC)n[nH]c3c1)C(=O)N2 [Example 26, (1R,2S)-5′-methoxy-2-(3-{[2-methoxy-5-(1-methyl-1H-pyrazol-4-yl)pyridin-3-yl]amino}-1H-indazol-6-yl)spiro[cyclopropane-1,3′-indol]-2′(1′H)-one] | 171 nM
360.5487 | 954.5884 | COc1ccc2c(c1)[C@]1(C[C@H]1c1ccc3c(Nc4cc(-c5cnn(C)c5)ncc4OC)n[nH]c3c1)C(=O)N2 [Example 27, (1R,2S)-5′-methoxy-2-(3-{[5-methoxy-2-(1-methyl-1H-pyrazol-4-yl)pyridin-4-yl]amino}-1H-indazol-6-yl)spiro[cyclopropane-1,3′-indol]-2′(1′H)-one] | 463 nM
1135 | 1526.5629 | CCOc1ccc(-c2nccs2)nc1Nc1n[nH]c2cc([C@@H]3C[C@@]34C(=O)Nc3ccc(OC)cc34)ccc12 [Example 28, (1R,2S)-2-(3-{[3-ethoxy-6-(1,3-thiazol-2-yl)pyridin-2-yl]amino}-1H-indazol-6-yl)-5′-methoxyspiro[cyclopropane-1,3′-indol]-2′(1′H)-one] | 16.7 nM
15611.2532 | 211.2020 | CCOc1cc(-c2cn(C)cn2)ccc1Nc1n[nH]c2cc([C@@H]3C[C@@]34C(=O)Nc3ccc(OC)cc34)ccc12 [Example 29, (1R,2S)-2-{3-[2-ethoxy-4-(1-methyl-1H-imidazol-4-yl)anilino]-1H-indazol-6-yl}-5′-methoxyspiro[cyclopropane-1,3′-indol]-2′(1′H)-one] | 466 nM
916.8947 | 1970.3298 | COc1ccc2c(c1)[C@]1(C[C@H]1c1ccc3c(Nc4cc(-c5ccsn5)ccc4OC)n[nH]c3c1)C(=O)N2 [Example 30, (1R,2S)-5′-methoxy-2-{3-[2-methoxy-5-(1,2-thiazol-3-yl)anilino]-1H-indazol-6-yl}spiro[cyclopropane-1,3′-indol]-2′(1′H)-one] | 97.4 nM
743.0555 | 429.3981 | COc1ccc2c(c1)[C@]1(C[C@H]1c1ccc3c(Nc4nc(-c5cnn(C)c5)ncc4OC)n[nH]c3c1)C(=O)N2 [Example 31, (1R,2S)-5′-methoxy-2-(3-{[5-methoxy-2-(1-methyl-1H-pyrazol-4-yl)pyrimidin-4-yl]amino}-1H-indazol-6-yl)spiro[cyclopropane-1,3′-indol]-2′(1′H)-one] | 135 nM

From patent US20260108527A1, “POLO LIKE KINASE 4 INHIBITORS” (ORIC Pharmaceuticals, Inc., priority 2022, published 2026)
